These are literature values, as cited in patent US20240173301A1, “2-IMINOBIOTIN FOR USE IN THE TREATMENT OF STROKE” (NEUROPHYXIA B.V., priority 2021, published 2024).

Like-named read-outs stand apart in the source and are kept apart here. Where no end group is shown, it is not given here.

For data set [1] the following is noted: in vivo.
For data set [2] the following is noted: healthy volunteers; preclinical safety; Phase I and II studies in neonates with asphyxia and adults after cardiac arrest.
The conditions of data set [3]: adult human patients after cardiac arrest.
The conditions of data set [4]: single dose.

As to `N=C1N[C@H]2[C@H](CS[C@H]2CCCCC(=O)O)N1` [2-IB, 2-iminobiotin], the “effect on tissue damage after ischemia-reperfusion” value in data set [1] is “prevents (further) tissue damage”. Further, the “concentration range at which 2-IB is most active in vitro” value with neuronal culture was “around 30 ng/ml”. Also, in data set [2], the safety entry is listed as “proven to be safe”. The “tolerability of eGFR adjusted dose” value in data set [3] was “tolerated without clinical drug-related adverse events”.
As for YGRKKRRQRRRKLSSIESDV [nerinetide], the clinical outcome in data set [4] (alteplase-treated stroke patients) is “did not show favorable outcomes”; in data set [4] (stroke patients that did not receive alteplase) it was “significant improvement”.
